In assay [1] the test system is HEK293. Nature of the assay: Fluorescence-based counterscreen for potentiators or agonists of NPY-Y2: cell-based high-throughput dose response assay to identify inhibitors of cyclic nucleotide gated ion channel (CNGC) activity. In this assay, the parental HEK293 cell line transfected with a cyclic-nucleotide gated ion channel (CNGC)-based cAMP sensor is used to measure inhibition of isoproterenol-induced CNGC activity by test compound. The following applies: Homo sapiens. Format: functional.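 Note: stimulus is 1 µM isoproterenol at EC100 plus PDE inhibitor Ro 20-1724 at 25 µM.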

Assay [2] addresses T1, Histone-lysine N-methyltransferase NSD2 (Homo sapiens, UniProt O96028).
T1 sequence (O96028 whole entry): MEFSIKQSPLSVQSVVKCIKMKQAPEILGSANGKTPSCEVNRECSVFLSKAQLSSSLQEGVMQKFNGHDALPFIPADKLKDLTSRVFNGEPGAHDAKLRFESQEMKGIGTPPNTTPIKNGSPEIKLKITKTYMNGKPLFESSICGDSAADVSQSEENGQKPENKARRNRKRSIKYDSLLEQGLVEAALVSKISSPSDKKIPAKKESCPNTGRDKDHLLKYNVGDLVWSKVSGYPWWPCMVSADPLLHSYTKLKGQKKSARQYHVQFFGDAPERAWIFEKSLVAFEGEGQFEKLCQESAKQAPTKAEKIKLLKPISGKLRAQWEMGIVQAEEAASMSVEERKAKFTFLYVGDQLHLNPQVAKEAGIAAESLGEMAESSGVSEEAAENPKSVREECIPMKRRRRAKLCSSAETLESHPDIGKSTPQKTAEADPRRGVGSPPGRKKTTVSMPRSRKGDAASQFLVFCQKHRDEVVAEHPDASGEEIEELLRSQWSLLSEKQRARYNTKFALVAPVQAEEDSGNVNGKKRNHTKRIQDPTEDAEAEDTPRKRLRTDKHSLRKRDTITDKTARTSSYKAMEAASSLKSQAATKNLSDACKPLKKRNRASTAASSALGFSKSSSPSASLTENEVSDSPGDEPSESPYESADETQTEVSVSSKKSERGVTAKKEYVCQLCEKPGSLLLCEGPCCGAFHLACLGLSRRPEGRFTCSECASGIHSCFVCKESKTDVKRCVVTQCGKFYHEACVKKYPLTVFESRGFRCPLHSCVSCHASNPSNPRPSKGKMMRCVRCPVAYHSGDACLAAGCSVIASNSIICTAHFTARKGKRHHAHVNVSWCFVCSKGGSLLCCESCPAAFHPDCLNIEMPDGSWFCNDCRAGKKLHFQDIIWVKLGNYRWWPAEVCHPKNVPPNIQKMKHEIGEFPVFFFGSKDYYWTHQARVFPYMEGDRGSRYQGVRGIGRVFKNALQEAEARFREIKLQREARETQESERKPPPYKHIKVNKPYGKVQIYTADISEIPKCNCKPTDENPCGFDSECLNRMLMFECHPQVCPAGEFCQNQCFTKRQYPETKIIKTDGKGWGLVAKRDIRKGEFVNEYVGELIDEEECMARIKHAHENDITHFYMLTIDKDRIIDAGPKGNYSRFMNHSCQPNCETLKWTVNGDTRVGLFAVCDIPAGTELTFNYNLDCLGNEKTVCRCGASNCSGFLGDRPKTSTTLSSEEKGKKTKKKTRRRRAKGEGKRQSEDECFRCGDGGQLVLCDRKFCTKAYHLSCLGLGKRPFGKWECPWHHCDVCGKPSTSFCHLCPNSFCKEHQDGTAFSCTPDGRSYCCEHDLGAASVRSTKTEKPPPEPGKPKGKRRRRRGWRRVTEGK
Format: biochemical.

Assay [3] addresses T2, Sentrin-specific protease 6 (Homo sapiens, UniProt Q9GZR1).
T2 sequence (Q9GZR1 whole entry): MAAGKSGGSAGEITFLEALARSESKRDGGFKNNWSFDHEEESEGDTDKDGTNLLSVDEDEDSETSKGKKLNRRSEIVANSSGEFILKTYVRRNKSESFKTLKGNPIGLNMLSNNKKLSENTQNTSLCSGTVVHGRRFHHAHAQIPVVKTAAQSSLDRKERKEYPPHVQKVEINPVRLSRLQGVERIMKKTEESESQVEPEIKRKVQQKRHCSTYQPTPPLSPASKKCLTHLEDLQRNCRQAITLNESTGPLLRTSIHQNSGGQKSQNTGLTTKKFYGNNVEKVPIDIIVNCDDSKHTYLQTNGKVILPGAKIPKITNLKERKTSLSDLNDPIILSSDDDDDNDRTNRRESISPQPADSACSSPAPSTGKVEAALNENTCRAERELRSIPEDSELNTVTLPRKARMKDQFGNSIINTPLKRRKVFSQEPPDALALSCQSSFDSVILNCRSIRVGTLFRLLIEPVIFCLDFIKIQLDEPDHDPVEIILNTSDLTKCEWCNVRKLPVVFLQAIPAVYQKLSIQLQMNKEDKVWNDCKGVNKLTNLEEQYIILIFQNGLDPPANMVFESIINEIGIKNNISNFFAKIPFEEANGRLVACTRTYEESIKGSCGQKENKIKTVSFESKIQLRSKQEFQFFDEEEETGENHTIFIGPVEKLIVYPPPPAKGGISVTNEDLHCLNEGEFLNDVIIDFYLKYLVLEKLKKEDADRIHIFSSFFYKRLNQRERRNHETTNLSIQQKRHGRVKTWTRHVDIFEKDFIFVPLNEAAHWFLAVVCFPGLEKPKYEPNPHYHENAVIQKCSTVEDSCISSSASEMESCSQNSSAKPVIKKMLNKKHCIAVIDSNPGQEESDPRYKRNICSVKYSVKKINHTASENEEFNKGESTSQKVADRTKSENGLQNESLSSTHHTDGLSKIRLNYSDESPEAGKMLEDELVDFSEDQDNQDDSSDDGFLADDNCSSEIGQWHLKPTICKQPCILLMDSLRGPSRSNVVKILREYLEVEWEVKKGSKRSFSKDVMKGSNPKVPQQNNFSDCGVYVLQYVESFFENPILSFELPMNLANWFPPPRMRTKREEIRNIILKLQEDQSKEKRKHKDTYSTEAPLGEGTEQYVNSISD
Format: functional.

Assay [4] relates to Streptococcus sp. 'group A'. Put plainly: Streptococcus pyogenes SK(-)GAS viability under kanamycin – luminescence, BacTiterGlo, confirmation, counter-screen for streptokinase expression inhibitor project, dose response (AID 1900). Format: functional, organism-based.
Assay [5] is described as follows: HepG2 cell cytotoxicity, dose response, cytotoxicity control for non-replicating M. tuberculosis project (AID 489018). Format: functional. The conditions noted are these: Mycobacterium tuberculosis.
Assay [6] in a line: Vero E6 cell cytotoxicity, dose response, cytotoxicity control for non-replicating M. tuberculosis project, secondary assay (AID 492998). Format: functional, VeroE6. The following applies: Vero C1008.
A short description of assay [7]: cytotoxicity in MITF-independent A375 cells – cell-based, CellTiter-Glo luminescence, dry powder, set 4, counter-screen for MITF inhibitor project, dose response (AID 624364).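 Note: A375 melanoma cells are MITF independent so this is a counter screen.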 Format: functional. The conditions noted are these: A-375.

The source made the active and inactive calls. A value given as a limit tells only on which side of the number the result lay.
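Throughout, for IC50: Luminescence-based dose-response confirmatory assay of SENP6 inhibition, following up an ultra-high-throughput screen.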

For the compound `O=C(CC(O)(C(F)(F)F)C(F)(F)F)Nc1ccc(Cl)c(Cl)c1`, the EC50 in assay [1] is given as > 35.4 µM (not active).
Turning to `O=C(O)CSc1cc(NS(=O)(=O)c2ccc(Br)cc2)c2ccccc2c1O`, the AC50 in assay [2] is 1.65 µM (active).
Regarding `O=C1NC(=S)N/C1=C/c1cc2c(cc1[N+](=O)[O-])OCO2`, the IC50 in assay [3] was 14.1 µM (active).
Turning to `O=C(CNc1cccc2ccccc12)N/N=C/c1ccc([N+](=O)[O-])o1`, in assay [4], the EC50 was 0.901 µM (active). The 50% cytotoxic concentration (CC50) in assay [5] is 17.5 µM (active); in assay [6] it was > 20 µM (active). Moreover, in assay [7], the AC50 was > 70 µM (inactive).

The values above are taken from ChEMBL document CHEMBL1201862, “PubChem BioAssay data set” (2004).
